From patent publication US8486462B2, “Glycoside having 4-methylergost-7-en-3-ol skeleton and hyperglycemia improving agent” (Morinaga Milk Industry Co., Ltd., priority 2004, dated 2013)
Where two headings read alike, the source gives them in different places.

Tests used:
db/db mice [1] = test: Test Example 1: hyperglycemia improving effect, random and fasting blood glucose levels in type-II diabetes model mice; format: in vivo; conditions: oral 1 mL of 15 μg/mL once a day, vs negative sample
Protocol: The final DMSO concentration was adjusted to 0.2%. The type-II diabetes model mice were orally administered 1 mL of the test sample solution once a day everyday with a sonde. […] Fasting blood glucose levels and random blood glucose levels were measured over time using Antisense II (Bayer-Sankyo Co., Ltd.). The fasting blood glucose levels were measured after 15 hours of fasting.

db/db mice [2] = conditions: for Hemoglobin A1c relative levels (%) 35th day from the administration: db/db mice, negative sample = 100
Protocol: As type-II diabetes model mice, 6-week old male db/db mice (purchased from Clea Japan, Inc.) were used. These mice were divided into groups, each consisting of 7 animals. The test sample was dissolved in DMSO, and the concentration of 3-O-β-D-glucopyranosyl-4-methylergost-7-en-3-ol was adjusted to 1, 5 and 15 μg/mL with physiological saline. The final DMSO concentration was adjusted to 0.2%. The type-II diabetes model mice were orally administered with 1 mL of the test sample solution once day everyday with a sonde. […] On the 35th day from the start of the administration, hemoglobin A1c levels were measured by using DCA 2000 (Bayer-Sankyo Co., Ltd.).

With CC1C(O[C@@H]2O[C@H](CO)[C@@H](O)[C@H](O)[C@H]2O)CC[C@@]2(C)C1CC=C1[C@@H]3CC[C@H]([C@H](C)CC[C@H](C)C(C)C)[C@@]3(C)CC[C@@H]12 (stereo partly drawn) [compound 1, 3-O-β-D-glucopyranosyl-4-methylergost-7-en-3-ol] the “fasting blood glucose levels, changes over time” value (db/db mice [1]; after 15 hours of fasting) was “effect of suppressing the increases in blood glucose levels was clearly observed”, the “random blood glucose levels, changes over time” value (db/db mice [1]) was “effect of suppressing the increases in blood glucose levels was clearly observed” and the “Hemoglobin A1c relative levels (%) 35th day from the administration” value (db/db mice [2]; 1 μg oral once a day) was 98.6 ± 7.3%. For the same molecule, the “Hemoglobin A1c relative levels (%) 35th day from the administration” value (db/db mice [2]; 5 μg oral once a day) was 89.6 ± 7.9 %, the “Hemoglobin A1c relative levels (%) 35th day from the administration” value (db/db mice [2]; 15 μg oral once a day) was 73.5 ± 8.6 % and the “hemoglobin A1c levels in comparison with negative sample” value (db/db mice [2]; repetitive administration of 5 or 15 μg, 35th day) was “statistically significant decreases”.
